Where two headings read alike, the source gives them in different places. Marks after values point to notes of the source that are not given here. Residues, ends and D or L forms follow the SMILES beside them.
What was measured:
[1] = test system: Drosophila melanogaster of LA strain; experiment: Content of lipid peroxide oxidation products (conjugated hydro-peroxides), LA strain; type: in vivo
Protocol: (§1) The impact produced by L-Ala-L-Glu-L-Asp-Gly tetrapeptide (SEQ ID NO: 1) on catalase activity, the content of the products of lipid peroxide oxidation (LPO), life span, and the ageing rate were studied in Drosophila melanogaster of LA strain.
(§2) L-Ala-L-Glu-L-Asp-Gly tetrapeptide (SEQ ID NO: 1) was applied in the larvae of the 3rd age in dose 0.00001% of the culture medium weight, which constituted approximately 0.015 mg/100 ml. Catalase activity was estimated by generally accepted methods in the homogenates of adult 14 days old flies. The experiment was carried out with a subsequent repetition.
(§3) Regression and dispersal analyses served as the basic technique of statistic processing. The authenticity of differences was confirmed by the method of minimal relevant diversity.

[2] = test system: patients suffering aspirin bronchial asthma; experiment: Clinical application in patients suffering aspirin bronchial asthma; type: in vivo
[3] = test system: catalase; experiment: Catalase activity in homogenates of 14 days old flies of LA strain; type: in vivo, Drosophila melanogaster of LA strain
Protocol: as §1, §2, §3

[4] = test system: Drosophila melanogaster of EA strain; experiment: Chemoluminescence intensity in homogenates of 7-day old flies of EA strain; type: in vivo
Protocol: (§4) Drosophila melanogaster of EA strain served as a model for studying the influence of L-Ala-L-Glu-L-Asp-Gly tetrapeptide (SEQ ID NO: 1) on catalase activity, tissue chemoluminescence, and life span.
(§5) L-Ala-L-Glu-L-Asp-Gly tetrapeptide (SEQ ID NO: 1) was applied in the larvae of the 3rd age in dose 0.00001% of the culture medium weight, which constituted approximately 0.015 mg/100 ml. Catalase activity and the intensity of chemoluminescence were estimated in the homogenates of adult 7-day old flies by generally accepted methods. The experiment was conducted with a subsequent 5 repetition.
(§6) Regression and dispersal analyses served as the basic technique of statistic processing.

[5] = test system: catalase; experiment: Catalase activity in homogenates of 7-day old flies of EA strain; type: in vivo, Drosophila melanogaster of EA strain
Protocol: as §4, §5, §6

[6] = test system: Drosophila melanogaster of “wild” Canton-S strain; conditions: for ALS ± statistic errors / Alterations in ALS: Canton-S; for Alterations in ALS: versus control
Protocol: In this research Drosophila melanogaster of “wild” Canton-S strain were employed.
L-Ala-L-Glu-L-Asp-Gly tetrapeptide (SEQ ID NO: 1) in the solution form was introduced into the culture medium provided for the growth of insects, which was cooled down to 50-60° C., with subsequent careful stirring and depositing it into test tubes.
To make the conditions of both the control and experimental population development identical, an amount of sodium chloride equal to that used for L-Ala-L-Glu-L-Asp-Gly tetrapeptide (SEQ ID NO: 1) solution was introduced into the culture medium for the control. The concentration of all the substances employed was calculated by the ratio to the mass of the culture medium provided for reproduction.
4-day old female flies underwent a randomly selected mating with males for 72 hours, one couple per each test tube, after which parental couples were removed from the test tubes. To form every new generation the posterity of 50 to 80 couples was used.
Life span (LS) was investigated on laboratory populations, each of them consisting of 90 individuals of each sex. Immediately after hatching the flies were randomly placed in test tubes, 10 individuals in each. Substitution of the culture medium was carried out 3 times a week.
Average values (ALS) and standard errors calculated by the traditional method were applied as life span distribution parameters. Average values were compared to each other with the application of Student t-criterion.
For experimental study 6 concentrations of L-Ala-L-Glu-L-Asp-Gly tetrapeptide (SEQ ID NO: 1) were selected: 0.01×, 0.1×, 1×, 5×, 7.5×, and 12.5×10^−6% of the culture medium weight.

[7] = test system: Drosophila melanogaster of HEM strain; experiment: Life span and ageing rate, HEM strain; type: in vivo; conditions: for 90% (the age, which 90% of the individuals reach) / ALS (average life span) / MRDT (mortality-rate doubling time) / Me (median life span) / R · 10^−2 (parameter of Gomperz equation): 0.00001% of medium
Description: (§7) L-Ala-L-Glu-L-Asp-Gly tetrapeptide (SEQ ID NO: 1) was applied in Drosophila melanogaster larvae of the 2nd age of HEM strain selected for a high ageing rate (20). HEM strain is characterised by the unique dynamics of embryonic mortality, which consists in an increased frequency of early embryonic lethal outcomes from 65% on the 1st day of egg-laying up to 95% on the 4th day, in a reduced average life span (29 days), and in a raised intensity of lipid peroxide oxidation.
(§8) L-Ala-L-Glu-L-Asp-Gly tetrapeptide (SEQ ID NO: 1) was added in proportion 0.00001% of the culture medium weight, which was an extremely low dose. The doses described in literature on the influence of various substances on Drosophila melanogaster usually ranged from 0.001 to 0.01%.

[8] = test system: Drosophila melanogaster of HEM strain; experiment: Luminol-dependent tissue chemoluminescence in flies of HEM strain; type: in vivo; conditions: 0.00001% of culture medium weight
Description: as §7, §8
(§9) Biochemical parameters were studied on 14-day old flies. Among them the activity of catalase activity and the intensity of tissue chemoluminescence were analysed (21, 22, 23). Catalase is the basic enzyme of anti-oxidation defence. […] Luminol-dependent chemoluminescence, induced by hydrogen peroxide, reflects the stage of active oxygen forms in tissues. Thus, a decrease in the chemoluminescence intensity indicates an increase in the organism ability to resist oxidative stress.

[9] = test system: catalase; experiment: Catalase activity in 14-day old flies of HEM strain; type: in vivo, Drosophila melanogaster of HEM strain; conditions: 0.00001% of culture medium weight
Description: as §7, §8, §9

[10] = 10 μg intramuscularly daily for 10 days
[11] = females, concentration 0.01 ×10^−6%
[12] = females, concentration 0.1 ×10^−6%
[13] = females, concentration 1.0 ×10^−6%
[14] = females, concentration 5.0 ×10^−6%
[15] = females, concentration 7.5 ×10^−6%
[16] = females, concentration 12.5 ×10^−6%
[17] = males, concentration 0.01 ×10^−6%
[18] = males, concentration 0.1 ×10^−6%
[19] = males, concentration 1.0 ×10^−6%
[20] = males, concentration 5.0 ×10^−6%
[21] = males, concentration 7.5 ×10^−6%
[22] = males, concentration 12.5 ×10^−6%

C[C@H](N)C(=O)N[C@@H](CCC(=O)O)C(=O)N[C@@H](CC(=O)O)C(=O)NCC(=O)O [L-Ala-L-Glu-L-Asp-Gly tetrapeptide, L-alanyl-L-glutamyl-L-aspartyl-glycine] (H-AEDG-OH)
Content of conjugated hydro-peroxides ([1]; females): 1.290* nmole/g of tissue
Content of conjugated hydro-peroxides ([1]; males): 1.202 nmole/g of tissue
Clinical state by the end of the treatment [2, 10]: improvement in clinical state by the end of the treatment was observed in the overwhelming majority of patients
External respiratory function (VBC, MVexhR, FEV1, TV/TLC) immediately after treatment [2, 10]: did not reveal any essential alterations
Reaction to Berotek on the level of distal bronchi [2, 10]: showed an improvement
Excretion of 6-sulfatoxymelatonin in urine ([2]; at night and in the daytime): increased
Specific activity of catalase ([3]; females): 42.57 μmole H2O2/mg of protein per min.
Specific activity of catalase ([3]; males): 57.44* μmole H2O2/mg of protein per min.
Chemoluminescence intensity ([4]; females): 4.61 ± 0.395 conv. unit/mg of protein per p
Chemoluminescence intensity ([4]; males): 4.93 ± 0.109 conv. unit/mg of protein per p
Specific activity of catalase ([5]; females): 82.78 ± 2.957 μmole H2O2/mg of protein per min.
Specific activity of catalase ([5]; males): 100.39 ± 3.807 μmole H2O2/mg of protein per min.
ALS ± statistic errors [6, 11]: 35.41 ± 1.07
Alterations in ALS [6, 11]: 13.4%
Alterations in ALS ([6]; females, concentration 0.01 ×10^−6%, listed as L-Ala-L-Glu-L-Asp-Gly): +13.4%
ALS ± statistic errors [6, 12]: 35.41 ± 1.07
Alterations in ALS [6, 12]: 11.8%
Alterations in ALS ([6]; females, concentration 0.1 ×10^−6%, listed as L-Ala-L-Glu-L-Asp-Gly): +11.8%
ALS ± statistic errors [6, 13]: 35.76 ± 1.35
Alterations in ALS [6, 13]: −1.1%
ALS ± statistic errors [6, 14]: 38.04 ± 1.56
Alterations in ALS [6, 14]: +3.2%
ALS ± statistic errors [6, 15]: 31.16 ± 1.21
Alterations in ALS [6, 15]: −7.6%
ALS ± statistic errors [6, 16]: 37.06 ± 1.12
Alterations in ALS [6, 16]: +5.6%
Duration of stage development (lack of genotoxic effect) ([6]; in vivo): did not alter the duration of their stage development
ALS ± statistic errors [6, 17]: 36.47 ± 1.09
Alterations in ALS [6, 17]: +12.0%
ALS ± statistic errors [6, 18]: 34.85 ± 1.18
Alterations in ALS [6, 18]: +10.8%
ALS ± statistic errors [6, 19]: 36.77 ± 1.44
Alterations in ALS [6, 19]: +13.3%
ALS ± statistic errors [6, 20]: 37.74 ± 1.16
Alterations in ALS [6, 20]: +11.3%
ALS ± statistic errors [6, 21]: 39.98 ± 0.99
Alterations in ALS [6, 21]: −0.03%
ALS ± statistic errors [6, 22]: 33.96 ± 1.01
Alterations in ALS [6, 22]: −9.0%
90% (the age, which 90% of the individuals reach) ([7]; females): 76 days
ALS (average life span) ([7]; females): 48 + days
MRDT (mortality-rate doubling time) ([7]; females): 3.9
Me (median life span) ([7]; females): 48.0 days
R · 10^−2 (parameter of Gomperz equation) ([7]; females): 4.0 + days^−1
90% (the age, which 90% of the individuals reach) ([7]; males): 62 days
ALS (average life span) ([7]; males): 42 + 1.3 days
MRDT (mortality-rate doubling time) ([7]; males): 3.8
Me (median life span) ([7]; males): 38.0 days
R · 10^−2 (parameter of Gomperz equation) ([7]; males): 4.5 + days^−1
Increase of the average life span ([7]; versus control): 26%
Reduction of the population real ageing rate (Gomperz parameter) ([7]; versus control): 40%
Chemoluminescence ([8]; females): 7.9 ± 0.91 conv. unit/mg of protein
Chemoluminescence ([8]; males): 2.03 ± 0.182 conv. unit/mg of protein
Catalase activity ([9]; females): 98.8 ± 1.62 mmole H2O2/mg of protein per min.
Catalase activity ([9]; males): 132.3 ± 3.68 mmole H2O2/mg of protein per min.

Source: US6727227B1, “Tetrapetide revealing geroprotective effect, pharmacological substance on its basis, and the method of its application” (Obschestvo S Ogranichennoi Otvetstven-Nostiju “Klinika …, priority 2002, dated 2004)
